Consider 2 molecules from patent US20200206198A1, “CFTR CHANNEL ACTIVATOR FOR USE IN THE TREATMENT AND/OR PREVENTION OF GLUTEN SENSITIVITY CONDITIONS” (priority 2017, published 2020).

The experiment addresses T1, CFTR (Homo sapiens, UniProt P13569).
T1 construct: Immunoprecipitations of endogenous proteins were performed on 500 μg of lysates from Caco-2 cells; host or cells: Caco-2, T84
Kind of experiment: CFTR channel function in intestinal epithelial cells (forskolin-induced Isc in Ussing chambers; SPQ iodide efflux). In kind it is cell-based. The method, then:
Human colon adenocarcinoma-derived Caco-2 and T84 cells (Barone, M. V. et al. 2014; Luciani, A. et al. 2010) were obtained from the ATCC. Cells were maintained in T25 flask in Modified Eagle Medium (MEM) for Caco-2, or Ham's F12+DMEM (1:1) for T84, supplemented with 10% fetal bovine serum (FBS), 2 mM Glutamine+1% Non Essential Amino Acids (NEAA) and the antibiotics penicillin\streptomycin (100 units/ml) (all reagents from Lonza). Caco-2 cells were grown in Transwells (Corning, 3470 or 3460) under the normal condition. Briefly, 8×10^4 or 5×10^5 cells were seeded in 6.5-mm diameter or 12-mm diameter, respectively, and grown until the RT reached 800 to 1,200 Ω·cm^2. Transwells with a pore size of 0.4 μm were used. Medium in both the apical and baso lateral chambers was changed every other day. Cells were treated with 20 μg/ml of either with the α-gliadin peptide comprising the P31-43 amino acid sequence of α-gliadin LGQQQPFPPQQPY (SEQ ID 1) (below referred to as P31-43), which is known to induce an enterocyte stress response (Meresse, B. et al.2009; Barone, M. V. et al. 2014; Luciani, A. et al. 2010), the T-cell activating α-gliadin peptide comprising the P57-68 amino acid sequence of α-gliadin (QLQPFPQPQLPY SEQ ID 2)) (below referred to as P57-68) (Maiuri, L., et al. 2003; Meresse, B. et al.2009; 30 Barone, M. V. et al. 2014), or the scrambled GAVAAVGVVAGA (SEQ ID 3) control peptide (below referred to as PGAV), or with different modified P31-43, either biotin-tagged or not, for different time points (from 1 h short challenge up to 24 h). Cells were also treated with 50 or 100 5 μg/ml of P57-68 or PGAV peptides for 3 h.
Caco-2 or T84 cells were also treated with: CFTR potentiators VX-770 (Ivacaftor) (10 μM) or VX-532 (20 μM) (Selleck chemicals) or Genistein (10 μM) (Verkman, A. S. et al. 2005; Jih, K. Y. et al. 2013) (Sigma-Aldrich) or in presence or absence of CFTR inhibitor172 (CFTRinh172, 20 μM).
Human colon adenocarcinoma-derived Caco-2 and T84 cells were obtained from the ATCC. Cells were maintained in T25 flask in Modified Eagle Medium (MEM) for Caco-2, or Ham's F12+DMEM (1:1) for T84, supplemented with 10% fetal bovine serum (FBS), 2 mM Glutamine+1% Non Essential Amino Acids (NEAA) and the antibiotics penicillin\streptomycin (100 units/ml) (all reagents from Lonza) (Luciani, A., et al. 2010. Cells were grown in Transwells (Corning, 3470 or 3460) under the normal condition (Luciani, A., et al. 2012). Briefly, 8×10^4 or 5×10^5 cells were seeded in 6.5-mm diameter or 12-mm diameter, respectively, and grown until the RT reached 800 to 1,200 Ω·cm2. Transwells with a pore size of 0.4 μm were used. Medium in both the apical and basolateral chambers was changed every other day. […]

T1 sequence (P13569 whole entry): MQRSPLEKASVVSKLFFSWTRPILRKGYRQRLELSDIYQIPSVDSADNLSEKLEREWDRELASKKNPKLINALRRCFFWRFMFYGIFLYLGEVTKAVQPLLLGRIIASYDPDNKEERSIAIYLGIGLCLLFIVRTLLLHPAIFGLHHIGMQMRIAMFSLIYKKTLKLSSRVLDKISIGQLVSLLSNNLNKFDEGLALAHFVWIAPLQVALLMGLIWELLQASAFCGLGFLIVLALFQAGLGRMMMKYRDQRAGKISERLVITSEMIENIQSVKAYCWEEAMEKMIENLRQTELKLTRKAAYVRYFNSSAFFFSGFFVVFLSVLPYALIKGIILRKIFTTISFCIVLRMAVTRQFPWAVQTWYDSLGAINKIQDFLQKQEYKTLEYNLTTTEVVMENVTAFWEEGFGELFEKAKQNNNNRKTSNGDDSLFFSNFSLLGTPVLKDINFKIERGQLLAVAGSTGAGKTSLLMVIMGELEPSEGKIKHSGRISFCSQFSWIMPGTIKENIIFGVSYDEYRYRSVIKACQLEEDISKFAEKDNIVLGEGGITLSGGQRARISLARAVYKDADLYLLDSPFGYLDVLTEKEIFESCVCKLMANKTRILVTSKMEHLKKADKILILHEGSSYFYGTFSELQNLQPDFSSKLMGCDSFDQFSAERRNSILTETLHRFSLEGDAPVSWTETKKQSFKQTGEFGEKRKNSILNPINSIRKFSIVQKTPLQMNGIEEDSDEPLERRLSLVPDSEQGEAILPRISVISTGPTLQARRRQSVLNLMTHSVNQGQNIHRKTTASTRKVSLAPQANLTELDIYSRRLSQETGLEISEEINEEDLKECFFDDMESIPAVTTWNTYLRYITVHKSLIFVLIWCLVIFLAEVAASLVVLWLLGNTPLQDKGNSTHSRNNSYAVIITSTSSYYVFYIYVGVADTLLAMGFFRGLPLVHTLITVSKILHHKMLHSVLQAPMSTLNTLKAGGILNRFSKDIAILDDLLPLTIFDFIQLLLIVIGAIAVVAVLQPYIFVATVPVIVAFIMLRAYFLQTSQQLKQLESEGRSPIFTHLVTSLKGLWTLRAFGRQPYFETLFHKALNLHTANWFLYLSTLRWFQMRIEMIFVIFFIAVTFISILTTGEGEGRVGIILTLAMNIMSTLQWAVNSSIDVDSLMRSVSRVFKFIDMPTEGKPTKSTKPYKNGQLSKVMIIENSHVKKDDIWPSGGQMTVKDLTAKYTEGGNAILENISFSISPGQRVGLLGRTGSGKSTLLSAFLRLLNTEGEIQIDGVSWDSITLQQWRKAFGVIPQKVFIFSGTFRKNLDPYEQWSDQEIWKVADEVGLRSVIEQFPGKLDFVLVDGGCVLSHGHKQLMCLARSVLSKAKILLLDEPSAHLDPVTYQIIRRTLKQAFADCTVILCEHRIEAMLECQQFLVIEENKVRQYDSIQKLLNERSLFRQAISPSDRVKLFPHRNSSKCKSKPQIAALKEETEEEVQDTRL

On to `CC(C)(C)c1cc(C(C)(C)C)c(NC(=O)c2c[nH]c3ccccc3c2=O)cc1O` [VX-770, N-(2,4-di-tert-butyl-5-hydroxyphenyl)-4-oxo-1,4-dihydroquinoline-3-carboxamide], for which, for the setting “VX-770 10 μM, VX-532 20 μM, Genistein 10 μM, Caco-2 or T84 cells”, the “prevention of P31-43 induced decrease of CFTR function” value is given as “Prevents P31-43 Induced Inhibition of CFTR Function”.

In the case of “α-gliadin peptide LGQQQPFPPQQPY (SEQ ID 1), induces an enterocyte stress response (P31-43 sequence of alpha-gliadin)”, the “reduction of CFTR channel function in response to forskolin” value (20 μg/ml peptide, intestinal epithelial cells (Caco-2, T84)) is “did reduce CFTR channel function”.
